Results from ChEMBL document CHEMBL1139133, “A spectroscopic and molecular modeling study of sinomenine binding to transferrin” (Bioorg Med Chem Lett, 2007).

Organism: Homo sapiens
Test: Binding affinity to human serum transferrin

Compound: COC1=C[C@@H]2[C@@H]3Cc4ccc(OC)c(O)c4[C@]2(CCN3C)CC1=O
- Ka: 0.68 10^3/M
